Where two headings read alike, the source gives them in different places.
Legend:
Format in all cases: in vivo
Cyperus iria [1] = assay: Herbicidal action in the greenhouse (pre-emergence treatment); details: Ia.3 31.2 g/ha a.s.
Description: (§1) The mixtures according to the invention were applied pre- or post-emergence (foliar treatment). The herbicidal compounds of component B were applied in the formulation in which they are present as commercially available product.
(§2) Some of the experiments were greenhouse experiments and some were field trials on mini plots (on a site with sandy loam (pH 6.2 to 7.0) or sandy clay (pH 5.0 to 6.7) as the soil).
(§3) The harmful plants differed with regard to size and developmental state; on average, they were 5 to 20 cm long, depending on the growth habit.
(§4) The herbicidally active compounds of components A) and B) were applied in succession or jointly, in the latter case in some cases as a tank mix and in some cases as a readymix, in the form of emulsions, aqueous solutions or suspensions, the vehicle being water ([…]). In the case of the field trials, application was effected with the aid of a mobile plot sprayer.
(§5) The test period extended over 3 to 8 weeks, and the stands were also observed at later points in time.
(§6) Damage by the herbicidal compositions was evaluated with reference to a scale of 0% to 100% in comparison with untreated control plots. 0 means no damage and 100 means complete destruction of the plants.
(§7) In these examples, the value E at which only an additive effect of the individual active ingredients is to be expected was calculated by the method of S. R. Colby (Calculating synergistic and antagonistic responses of herbicide combinations, Weeds 15, 20 pp (1967).

Setaria viridis [2] = assay: as above
Description: as §1, §2, §3, §4, §5, §6, §7

Amaranthus retroflexus [3] = assay: as above; details: Ia.3 31.2 g/ha a.s.
Description: as §1, §2, §3, §4, §5, §6, §7

Echinochloa crus-galli [4] = assay: as above
Description: as §1, §2, §3, §4, §5, §6, §7

Digitaria sanguinalis [5] = assay: as above
Description: as §1, §2, §3, §4, §5, §6, §7

Abutilon theophrasti [6] = assay: Herbicidal action in the field (post-emergence treatment)
Description: as §1, §2, §3, §4, §5, §6, §7

Cyperus species = assay: as above
Description: as §1, §2, §3, §4, §5, §6, §7

Setaria viridis [7] = assay: as above; details: Ia.3 100 g/ha a.s.
Description: as §1, §2, §3, §4, §5, §6, §7

Richardia brasiliensis = assay: as above; details: Ia.3 75 g/ha a.s.
Description: as §1, §2, §3, §4, §5, §6, §7

Setaria faberi [8] = assay: as above
Description: as §1, §2, §3, §4, §5, §6, §7

Sorghum bicolor = assay: as above
Description: as §1, §2, §3, §4, §5, §6, §7

Stellaria media = assay: as above
Description: as §1, §2, §3, §4, §5, §6, §7

Chenopodium album = assay: as above; details: Ia.3 50 g/ha a.s.
Description: as §1, §2, §3, §4, §5, §6, §7

[9] = system: Ipomoea purpurea var. diversifolia; assay: as above
Description: as §1, §2, §3, §4, §5, §6, §7

Lolium perenne = assay: as above; details: Ia.3 75 g/ha a.s.
Description: as §1, §2, §3, §4, §5, §6, §7

Bidens pilosa = assay: as above
Description: as §1, §2, §3, §4, §5, §6, §7

Alopecurus myosuroides [10] = assay: as above
Description: as §1, §2, §3, §4, §5, §6, §7

Galium aparine = assay: as above
Description: as §1, §2, §3, §4, §5, §6, §7

Echinochloa crus-galli [11] = assay: as above; details: Ia.3 75 g/ha a.s.
Description: as §1, §2, §3, §4, §5, §6, §7

Phalaris spec. = assay: as above; details: Ia.3 75 g/ha a.s.
Description: as §1, §2, §3, §4, §5, §6, §7

Anthemis mixta = assay: as above; details: Ia.3 75 g/ha a.s.
Description: as §1, §2, §3, §4, §5, §6, §7

Brachiaria plantaginea = assay: as above; details: Ia.3 75 g/ha a.s.
Description: as §1, §2, §3, §4, §5, §6, §7

Ipomoea acuminata = assay: as above
Description: as §1, §2, §3, §4, §5, §6, §7

Digitaria sanguinalis [12] = assay: as above; details: Ia.3 50 g/ha a.s.
Description: as §1, §2, §3, §4, §5, §6, §7

Geranium carolinianum = assay: as above; details: Ia.3 150 g/ha a.s.
Description: as §1, §2, §3, §4, §5, §6, §7

Digitaria adscendens = assay: as above
Description: as §1, §2, §3, §4, §5, §6, §7

Abutilon theophrasti [13] = assay: Herbicidal action in the greenhouse (post-emergence treatment)
Description: as §1, §2, §3, §4, §5, §6, §7

Ipomoea ssp. = assay: as above
Description: as §1, §2, §3, §4, §5, §6, §7

Setaria viridis [14] = assay: as above; details: Ia.3 15.6 g/ha a.s.
Description: as §1, §2, §3, §4, §5, §6, §7

Amaranthus retroflexus [15] = assay: as above; details: Amaranthus retroflexus, post-emergence
Description: as §1, §2, §3, §4, §5, §6, §7

Veronica ssp. = assay: as above
Description: as §1, §2, §3, §4, §5, §6, §7

Amaranthus retroflexus [16] = assay: Herbicidal action in the field (post-emergence treatment); details: dicamba 280 g/ha a.s.
Description: as §1, §2, §3, §4, §5, §6, §7

Zea mays = assay: Phytotoxicity to crop plant in the greenhouse (post-emergence treatment)
Description: as §1, §2, §4, §5, §6, §7

Cyperus iria [17] = assay: Herbicidal action in the field (post-emergence treatment); details: benthiocarb 3000 g/ha a.s.
Description: as §1, §2, §3, §4, §5, §6, §7

Sorghum halepense = assay: as above; details: for Damage (%): Sorghum halepense, field, post-emergence, Ia.33 75 g/ha a.s.
Description: as §1, §2, §3, §4, §5, §6, §7

Panicum miliaceum = assay: as above; details: Ia.33 50 g/ha a.s.
Description: as §1, §2, §3, §4, §5, §6, §7

Ipomoea lacunosa = assay: as above; details: Ia.33 75 g/ha a.s.
Description: as §1, §2, §3, §4, §5, §6, §7

Setaria faberi [18] = assay: Herbicidal action in the greenhouse (post-emergence treatment); details: Ia.33 7.8 g/ha a.s.
Description: as §1, §2, §3, §4, §5, §6, §7

Alopecurus myosuroides [19] = assay: as above
Description: as §1, §2, §3, §4, §5, §6, §7

Echinochloa crus-galli [20] = assay: as above
Description: as §1, §2, §3, §4, §5, §6, §7

## Cn1ncc(C(=O)c2ccc(S(C)(=O)=O)c(C3=NOCC3)c2Cl)c1O [Ia.3, 4-[2-chloro-3-(4,5-dihydroisoxazol-3-yl)-4-methylsulfonylbenzoyl]-1-methyl-5-hydroxy-1H-pyrazole]
Cyperus iria [1]
  Damage: 50%
Setaria viridis [2]; Ia.3 15.6 g/ha a.s.
  Damage: 20%
Amaranthus retroflexus [3]
  Damage: 40%
Echinochloa crus-galli [4]; Ia.3 62.5 g/ha a.s.
  Damage: 60%
Digitaria sanguinalis [5]; Ia.3 62.5 g/ha a.s. (Table 40)
  Damage: 60%
Digitaria sanguinalis [5]; Ia.3 62.5 g/ha a.s. (Table 47)
  Damage: 60%
Abutilon theophrasti [6]; Ia.3 50 g/ha a.s. (Table 5)
  Damage: 85%
Abutilon theophrasti [6]; Ia.3 75 g/ha a.s. (Table 66)
  Damage: 85%
Cyperus species; Ia.3 75 g/ha a.s. (Table 70)
  Damage: 5%
Cyperus species; Ia.3 75 g/ha a.s. (Table 71)
  Damage: 0%
Setaria viridis [7]
  Damage: 75%
Richardia brasiliensis
  Damage: 70%
Setaria faberi [8]; Ia.3 75 g/ha a.s. (Table 59)
  Damage: 99%
Setaria faberi [8]; Ia.3 75 g/ha a.s. (Table 67)
  Damage: 95%
Sorghum bicolor; Ia.3 (title: Ia.33) 75 g/ha a.s. (Table 68)
  Damage: 78%
Stellaria media; Ia.3 75 g/ha a.s. (Table 14)
  Damage: 91%
Stellaria media; Ia.3 75 g/ha a.s. (Table 63)
  Damage: 91%
Chenopodium album
  Damage: 92%
[9]; Ia.3 75 g/ha a.s. (Table 16)
  Damage: 93%
[9]; Ia.3 75 g/ha a.s. (Table 65)
  Damage: 94%
Lolium perenne
  Damage: 10%
Bidens pilosa; Ia.3 75 g/ha a.s. (Table 13)
  Damage: 30%
Bidens pilosa; Ia.3 75 g/ha a.s. (Table 58)
  Damage: 25%
Bidens pilosa; Ia.3 75 g/ha a.s. (Table 69)
  Damage: 25%
Alopecurus myosuroides [10]; Ia.3 7.5 g/ha a.s. (Table 7)
  Damage: 10%
Alopecurus myosuroides [10]; Ia.3 75 g/ha a.s. (Table 8)
  Damage: 10%
Galium aparine; Ia.3 75 g/ha a.s. (Table 9)
  Damage: 63%
Galium aparine; Ia.3 75 g/ha a.s. (Table 54)
  Damage: 60%
Galium aparine; Ia.3 75 g/ha a.s. (Table 64)
  Damage: 60%
Echinochloa crus-galli [11]
  Damage: 98%
Phalaris spec.
  Damage: 20%
Anthemis mixta
  Damage: 68%
Brachiaria plantaginea
  Damage: 96%
Brachiaria plantaginea; Table 80, Brachiaria plantaginea, field, post-emergence
  Damage (%): 95%
Ipomoea acuminata; Ia.3 75 g/ha a.s. (Table 15)
  Damage: 25%
Ipomoea acuminata; Ia.3 75 g/ha a.s. (Table 29)
  Damage: 25%
Ipomoea acuminata; Ia.3 75 g/ha a.s. (Table 35)
  Damage: 25%
Ipomoea acuminata; Ia.3 75 g/ha a.s. (Table 76)
  Damage: 23%
Digitaria sanguinalis [12]
  Damage: 57%
Geranium carolinianum
  Damage: 30%
Digitaria adscendens; Ia.3 75 g/ha a.s. (Table 33)
  Damage: 90%
Digitaria adscendens; Ia.3 75 g/ha a.s. (Table 37)
  Damage: 90%
Abutilon theophrasti [13]; Ia.3 15.6 g/ha a.s.
  Damage: 70%
Ipomoea ssp.; Ia.3 31.2 g/ha a.s. (Table 27)
  Damage: 75%
Ipomoea ssp.; Ia.3 31.2 g/ha a.s. (Table 74)
  Damage: 75%
Setaria viridis [14]
  Damage: 80%
Amaranthus retroflexus [15]; read-out: Damage, Ia.3 15.6 g/ha a.s. (Table 10)
  pest or weed control at 15.6 g/ha: 80%
Amaranthus retroflexus [15]; read-out: Damage, Ia.3 15.6 g/ha a.s. (Table 25)
  pest or weed control at 15.6 g/ha: 55%
Veronica ssp.; Ia.3 31.2 g/ha a.s.
  Damage: 80%

## COc1c(Cl)ccc(Cl)c1C(=O)O [dicamba, reference compound]
Sorghum bicolor; dicamba 560 g/ha a.s.
  Damage: 17%
Amaranthus retroflexus [16]
  Damage: 25%

## CCc1cccc(C)c1N(C(=O)CCl)[C@@H](C)COC [S-Metolachlor, S-metolachlor, reference compound]
Setaria viridis [2]; S-Metolachlor 62.5 g/ha a.s.
  Damage: 70%
Echinochloa crus-galli [4]; S-Metolachlor 62.5 g/ha a.s.
  Damage: 65%
Digitaria sanguinalis [5]; S-Metolachor 125 g/ha a.s.
  Damage: 50%
Zea mays; Table 84, S-Metolachlor 125 g/ha a.s.
  Phytotoxicity (%): 0%
Ipomoea ssp.; S-Metolachlor 62.5 g/ha a.s.
  Damage: 0%
Veronica ssp.; S-Metolachlor 125 g/ha a.s.
  Damage: 0%

## CCN(CC)C(=O)SCc1ccc(Cl)cc1 [benthiocarb]
Cyperus iria [17]
  Damage: 50%

## Cc1c(C(=O)c2cnn(C)c2O)ccc(S(C)(=O)=O)c1C1=NOCC1 [Ia.33, 4-[2-methyl-3-(4,5-dihydroisoxazol-3-yl)-4-methylsulfonylbenzoyl]-1-methyl-5-hydroxy-1H-pyrazole]
Zea mays; Table 84, Ia.33 62.5 g/ha a.s.
  Phytotoxicity (%): 0%
Setaria faberi [8]; Ia.33 75 g/ha a.s.
  Damage: 65%
Setaria faberi [8]; Table 82, Setaria faberi, field, post-emergence, Ia.33 75 g/ha a.s.
  Damage (%): 65%
Sorghum bicolor; Ia.33 75 g/ha a.s. (Table 73)
  Damage: 78%
Sorghum halepense; Ia.33 75 g/ha a.s. (Table 32)
  Damage: 78%
Sorghum halepense; Ia.33 75 g/ha a.s. (Table 42)
  Damage: 78%
Sorghum halepense; Table 78
  Damage (%): 78%
Sorghum halepense; Table 79
  Damage (%): 78%
Galium aparine; Ia.33 1.9 g/ha a.s.
  Damage: 20%
Panicum miliaceum
  Damage: 87%
Ipomoea lacunosa
  Damage: 69%
Ipomoea lacunosa; Table 81, Ipomoea lacunosa, field, post-emergence
  Damage (%): 69%
Abutilon theophrasti [13]; Ia.33 7.8 g/ha a.s.
  Damage: 90%
Ipomoea ssp.; Ia.33 3.9 g/ha a.s.
  Damage: 50%
Ipomoea ssp.; Ia.33 62.5 g/ha a.s.
  Damage: 80%
Setaria faberi [18]
  Damage: 90%
Alopecurus myosuroides [19]; Ia.33 15.6 g/ha a.s.
  Damage: 40%
Alopecurus myosuroides [19]; Ia.33 62.5 g/ha a.s. (Table 19)
  Damage: 40%
Alopecurus myosuroides [19]; Ia.33 62.5 g/ha a.s. (Table 62)
  Damage: 40%
Amaranthus retroflexus [15]; read-out: Damage, Ia.33 1.9 g/ha a.s.
  pest or weed control at 1.9 g/ha: 30%
Amaranthus retroflexus [15]; read-out: Damage, Ia.33 7.8 g/ha a.s.
  pest or weed control at 7.8 g/ha: 70%
Echinochloa crus-galli [20]; Ia.33 1.9 g/ha a.s.
  Damage: 55%
Echinochloa crus-galli [20]; Ia.33 15.6 g/ha a.s.
  Damage: 90%
Veronica ssp.; Ia.33 15.6 g/ha a.s.
  Damage: 60%
Veronica ssp.; Ia.33 62.5 g/ha a.s. (Table 18)
  Damage: 20%
Veronica ssp.; Ia.33 62.5 g/ha a.s. (Table 51)
  Damage: 80%

From patent publication US20030203819A1, “Synergistically acting herbicidal mixtures” (priority 1998, published 2003)
